Results reported in patent US20240228542A1, “LYTIC DOMAIN FUSION CONSTRUCTS, CHECKPOINT INHIBITORS, AND METHODS OF MAKING AND USING SAME” (A28 Therapeutics Inc., priority 2020, published 2024).

Columns and labels:
[1] = system: CD8+ T cells; assay: T cell activation by condition media from EP-100-treated ID8 cells; assay type: cell-based, mouse; conditions: cells treated with condition media (CM) from EP-100-treated cells; controls 12.3±1.1, p=0.04
[2] = system: EMT-6 murine mammary carcinoma; assay: EMT-6 murine mammary carcinoma syngeneic model, tumor growth delay; assay type: in vivo, BALB/c mice; conditions: for median TTE: control 16.5 days
Description: The present study consisted of six efficacy groups (n=10) and three sampling groups (n=5) of female BALB/c mice implanted with EMT-6 tumor cells (mean volume: 61-85 mm^3). Dosing was initiated on Day (D) 1 of the study, unless otherwise noted. […] Anti-CTLA-4 was administered i.p. at 100 μg/animal on Day 2 and 50 μg/animal on Day 5 and Day 8.
Group 1 mice served as controls and received i.v. saline (vehicle), qod×to end. Group 2 received anti-CTLA-4. Group 3 received Phor 18-LHRH at 0.4 μg/animal qod×8 followed by 20 μg/animal qod to end (starting on Day 17). […] Group 5 received Phor 18-LHRH at 0.4 μg/animal q.o.d.×8 followed by 20 μg/animal qod to end (starting on Day 17) in combination with anti-CTLA-4.
The study endpoint was a tumor volume of 2000 mm^3 or 45 days, whichever came first. Tumor measurements were taken twice weekly until D45 with individual animals exiting the study upon reaching the tumor volume endpoint.
Efficacy was determined from tumor growth delay (TGD), the increase in median time-to-endpoint (TTE) in treated versus control mice, and from comparison of survival curves using logrank analysis. Response was additionally evaluated based on the number of study survivors, partial regression (PR) and complete regression (CR) responses, and logrank significance of differences in survival. Tolerability of the various treatments was assessed by body weight (BW) measurements and frequent observation for clinical symptoms and treatment-related (TR) side effects.
Four sampling groups consisting of 5 animals each were included in this study: saline controls. […] Animals in these groups were sacrificed on day 17, tumors were excised, formalin fixed and paraffin embedded to obtain H&E stained sections for histological evaluation of the tumors. Tumor samples were collected for analysis and stained with hematoxylin & cosin for pathological evaluation.

[3] = system: IG10 murine ovarian carcinoma; assay: Orthotopic IG10 murine ovarian carcinoma syngeneic model; assay type: in vivo, C57BL/6 mice
Description: (§1) C57BL/6 female mice were injected orthotopically with luciferase labeled IG10 murine ovarian cancer cell line (1x10^6 cells). Mice were monitored for tumor take using a luminescent imaging system. […] Each treatment and control group consisted of 10 mice. At necropsy on day 28, ascites fluids were removed and measured, and tumors were removed and weighed.
(§2) Significance between treatment groups was assessed using Wilcoxon signed Rank test analysis and ANOVA.

[4] = system: ID8 murine ovarian carcinoma; assay: Orthotopic ID8 murine ovarian carcinoma syngeneic model; assay type: in vivo, C57BL/6 mice
Description: Ovarian Cancer Orthotopic Syngeneic Mouse model—Eight-to 12-week-old female C57BL/6 mice were purchased from Taconic Farms, ID8 or IG10 cells at a concentration off 2×10^6 cells/0.2 mL per mouse were injected into the intraperitoneal cavity of C57BL/6. All mouse studies were approved by the Institutional Animal Care and Use Committee and were cared for in accordance with guidelines set forth by the American Association for Accreditation of Laboratory Animals. After cancer cell injection, mice were randomly divided into four treatment groups: 1) untreated control, 2) PD-L1 antibody (200 μg/kg intraperitoneally twice a week), 3) EP-100 (0.2 mg/kg intravenously twice a week) and 4) PD-L1 antibody plus EP-100. Treatment was initiated ten days after cancer cell injection into the intraperitoneal cavity.
as §1, with “ID8 (ID8-L)” for “IG10”, “(1×10^6” for “(1x10^6”, “system. Treatments started on day 7 after tumor cell injection and continued on days 9, 12, 16, 19, 22, and 26 (FIG. 17A).” for “system.”
as §2

[5] = system: murine ovarian cancer cells; assay: EP-100 cytotoxicity and LHRH-R specificity in murine ovarian cancer cells; assay type: cell-based; conditions: ID8 cells, EP-100, 24 hr
Excerpt: To identify the direct effects of EP-100 on cancer cells, murine ovarian cancer cell lines were used for in vitro experiments. […] The level of expression of LHRH-R in murine ovarian cancer cells using RT-PCR and Western blot analysis. […] Indeed, LHRH-R was expressed mainly on the membrane of cancer cells (FIGS. 14D and 14E). Human SKOV3ipl ovarian cancer cells and immortalized murine 3T3 fibroblasts were used as negative controls.
To determine whether the antitumor EP-100 efficacy was specific to LHRH-R expression, we silenced LHRH-R using siRNA (FIG. 15A). […].

[6] = system: OVCAR-3; assay: Cytotoxicity in OVCAR-3 ovarian cancer cells; assay type: cell-based; conditions: OVCAR-3 ovarian cancer cell line; read-out: IC50 in Human Cancer Cell Lines
Description: MDA-MB-435S.luc cells were grown in Leibovitz's L 15 medium, 10% fetal bovine serum, 0.01 mg/ml bovine insulin, 100 IU/ml penicillin, 100 microg/ml streptomycin. The cells were cultured in tight closed flasks. The incubations were conducted using 96 well plates at 10,000 cells per well. Cells were typically seeded into 96 well plates and media was replaced after 48 hours of incubation. Each assay was conducted at increasing concentrations of 0, 0.001, 0.01, 0.05, 0.1, 0.5, 1, 2, 5, 10 and 100 micromolar doses of lytic peptide-binding domain conjugate. Each lytic peptide-binding domain conjugate provided in lyophilized form and was freshly dissolved in saline and added to cells. The duration of incubation was typically 24 h, and cell viability assays were conducted using formazan conversion assays (MTT assay). Controls contained saline or 0.1% triton as reference for 0 and 100% cell death, respectively.
To ascertain the IC50 of various fusion constructs on different human cancer cell lines compared to cisplatinum, IC50 of fusion constructs were evaluated as in Table 3.

[7] = Phor18-LHRH at 0.4 μg and 20 μg/animal (alone or with anti-CTLA-4)
[8] = Phor18-LHRH at 10 μg and 60 μg/animal (alone or with anti-CTLA-4)

Q: “KFAKFAKKFAKFAKKFAKQHWSYGLRPG [Phor18-LHRH]” was tested. Which “proportion of CD8+ T cells” value [1] did it give?
A: Its value is 17.3±1.1.

Q: What about the TGD [2, 7] of the same sequence?
A: Its TGD is 6%.

Q: And the “median TTE” value [2, 7]?
A: Its value is 17.5 days.

Q: What about the TGD [2, 8] of the same sequence?
A: Its TGD is 5%.

Q: And the “median TTE” value [2, 8]?
A: The value was 17.4 days.

Q: What about the “histological evaluation of tumors” value ([2]; animals sacrificed on day 17) of the same sequence?
A: Its value is “inflammatory immune cell infiltration and necrosis”.

Q: And the “relative reduction of ascites volumes” value [3]?
A: Its value is 60.2%.

Q: And the “tumor weights at necropsy” value ([3]; Mean±SEM, N=10, controls 1.04±0.09 g)?
A: The value was 0.45 ± 0.08 g.

Q: What about the ascites volumes ([3]; Mean±SEM, N=10, vehicle 9.06±1.3 ml) of the same sequence?
A: Its ascites volumes is 3.6 ± 0.7 mL.

Q: What about the reduction of ascites ([4]; ID8) of the same sequence?
A: Its reduction of ascites is 1.5 fold.

Q: And the “reduction of live tumor size” value ([4]; ID8)?
A: The value was 2.1 fold.

Q: What about the “reduction of tumor weights” value ([4]; ID8) of the same sequence?
A: The value was 3 fold.

Q: And the “relative reduction of ascites volumes” value ([4]; ID8)?
A: The value was 35.5%.

Q: And the “luminescence counts of tumor at the end of the study” value ([4]; ID8-luciferase, mean±SD, start 9.2±1.2×10^4)?
A: The value was 88.6±21.5 ×10^4.

Q: What about the “tumor weights at necropsy” value ([4]; ID8, Mean±SEM, N=10, controls 1.06±0.08 g) of the same sequence?
A: Its value is 0.49 ± 0.07 g.

Q: And the ascites volumes ([4]; ID8, Mean±SEM, N=10, vehicle 12.26±0.6 ml)?
A: The ascites volumes was 8.0 ± 0.7 mL.

Q: And the “viability of cells in which LHRH-R was silenced (siRNA)” value [5]?
A: Its value is “remained viable”.

Q: And the IC50 [6]?
A: Its IC50 is 3 µM.
